Results published in patent US20250333733A1, “NOVEL TARGETS AGAINST OVARIAN CANCER” (UNIVERSITY OF PUERTO RICO, priority 2022, published 2025).

How the values were obtained:
[1] = system: OVCAR3CIS; assay: Cell cycle progression by flow cytometry; type: cell-based; settings: 48 hours post-transfection
Procedure: (§1) To assess cell cycle progression, OVCAR3CIS (3.0×10^4 cells/mL) or SKOV3ip1CIS (3.5×10^4 cells/mL) were seeded into 10 cm Petri dishes and transfected with NC-siRNA or CASC10-siRNA (2). Forty-eight hours later, attached cells were collected, washed in ice-cold PBS, fixed with 70% cold ethanol, and stored at 4° C. Cells were then washed with ice-cold PBS, resuspended in propidium iodide (PI)/RNase Staining Buffer, incubated in the dark for 15 minutes at room temperature, and then analyzed by flow cytometry in BD C6 Accuri (CA, USA). Accuri's software was used to determine the percentage of cells in each cell cycle phase.

[2] = system: CASC10; assay: RT-qPCR of CASC10 expression after siRNA transfection in SKOV3ip1 cells; type: cell-based, human; settings: SKOV3ip1 cells as printed
Procedure: (§2) SiRNA ON-TARGET plus SMARTpool (a mixture of 4 siRNA as a single tube) and a negative control siRNA (NC-siRNA) (Sigma-Aldrich) were used for transfection studies. CASC10, was targeted by using two siRNAs targeting different regions of the CASC10 RNA (e.g., CASC10-siRNA (1) and CASC10-siRNA (2)). OVCAR3CIS or SKOV3ip1CIS cells were seeded into 12-well plates at 3.0×10^4 cells/mL. The next day, siRNAs were mixed with HiPerfect transfection reagent (Qiagen, Valencia, CA) at a 1:2 ratio (SIRNA: HiPerfect) in serum and antibiotic-free Opti-MEM medium (Gibco) and added to the cells. After twenty-four hours the media was replaced by regular culture media, and cells were cultured and used for further experiments. To assess siRNA transfection efficiency, cells were collected 24 hours after siRNA transfection.
(§3) A custom-made 384-well plate containing pre-designed forward and reverse primers was purchased from Bio-Rad (CA, USA). Total RNA was isolated from OVCAR3 and OVCAR3CIS cells using the GenElute Mammalian Total RNA Mini Kit (Millipore-Sigma, MO, USA) following the manufacturer's instructions. […] Fold-changes and cycle threshold (Ct) values were calculated by the instrument's internal software relative to OVCAR3 cells and normalized to B-actin along with controls for gDNA, PCR reaction, RT reaction, and RNA quality.

[3] = system: SKOV3ip1 cells; assay: Cell viability, Alamar blue, siRNA; type: cell-based, human; settings: SKOV3ip1, any siRNA concentration tested, vs NC-siRNA
Procedure: OVCAR3CIS cells (3.0×10^4 cells/mL) or SKOV3ip1CIS (3.0×10^4 cells/mL) were seeded into 12-well plates. Twenty-four hours later, cells were transfected with 100 nM (final concentration) of each siRNA. The next day, 400 cells (OVCAR3CIS) or 1,000 cells (SKOV3ip1CIS) were seeded into 6-well plates and incubated for seven days, fixed and stained with 0.5% crystal violet in methanol. Colonies of at least 50 cells were counted using a light microscope (CKX41: Olympus, Center Valley, PA, USA) with a total magnification of 40x. For cell viability assays, OVCAR3 and OVCAR3CIS (3.0×10^4 cells/mL) or SKOV3ip1and SKOV3ip1CIS (3.5×10^4 cells/mL) were seeded into 96-well plates, and 24 hours later, siRNA transfection was performed as described above. The next day, the transfection mix was replaced with cisplatin (CIS) (2.5 uM final concentration dissolved in regular cell culture media) and after forty-eight hours, the medium was removed, and Alamar blue dye (Invitrogen, Thermo Fisher Scientific, Eugene, OR, USA) was added following the manufacturer's instructions. Optical density (OD) was measured, and percentages of cell viability were calculated after blank OD subtraction. Untreated cells were assessed as 100% cell viability.

[4] = system: CASC10; assay: RT-qPCR of CASC10 expression after siRNA transfection in OVCAR3CIS cells; type: cell-based; settings: vs NC-siRNA
Procedure: as §2, §3

[5] = system: Caspase-3; assay: Caspase-3 fluorometric activity in OVCAR3CIS cells; type: cell-based; settings: 72 hours after transfection, vs NC-siRNA
Procedure: Caspase-3 activity was quantified using the Caspase-3/CPP32 Fluorometric Assay Kit (BioVision CA, USA) as per the manufacturer's instructions. OVCAR3CIS (3.0×10^4 cells/mL) or SKOV3ip1CIS (3.5×10^4 cells/mL) were seeded into 10 cm Petri dishes and transfected with NC-siRNA or CASC10-siRNA (2). Twenty-four hours later, the media was replaced by regular media, and seventy-two hours after transfection, cells were collected, pellets lysed, and total protein concentration determined. Equal amounts of protein were mixed with 2×Reaction Buffer and 1 mM DEVD-AFC substrate in a 96-well plate and incubated at 37° C. for 2.5 hours. Fluorescence intensity at 400 nm excitation and 505 nm emission was measured.

[6] = system: SKOV3IP1CIS; assay: Cell cycle progression by flow cytometry; type: cell-based, human; settings: 48 hours post-transfection
Procedure: as §1

[7] = system: OVCAR3CIS cells; assay: Matrigel transwell invasion assay; type: cell-based; settings: vs NC-siRNA
Procedure: (§4) Cell invasion was measured using the Matrigel transwell method. OVCAR3CIS (3.0×10^4 cells/mL) or SKOVip1CIS (3.5×10^4 cells/mL) were seeded into 10 cm Petri dishes and transfected with siRNAs. Twenty-four hours later, serum-free matrigel (BD Biosciences CA, USA) was added onto the upper chambers of 24-well plates and incubated at 37° C. for polymerization. Transfected cells were collected and resuspended in serum-free and re-seeded onto the Matrigel-coated chambers. Medium containing 10% FBS was added to the lower area of the wells, and the plates incubated for 48 hours at 37° C. The medium was removed, and cells that invaded through the matrigel fixed and stained using ProtocolHema 3 Stain Set (Fisher Scientific MI, USA). Invaded cells were microscopically counted using a digital camera to capture images at a 20× resolution. The percentage of cell invasion was calculated using the NC-SIRNA condition as 100% cell invasion.

[8] = system: SKOV3IP1CIS; assay: Matrigel transwell invasion assay; type: cell-based, human
Procedure: as §4

[9] = system: OVCAR3CIS cells; assay: Colony formation assay after siRNA transfection; type: cell-based; settings: single siRNA, vs NC-siRNA
Procedure: as §2
OVCAR3CIS cells (3.0×10^4 cells/mL) or SKOV3ip1CIS (3.0×10^4 cells/mL) were seeded into 12-well plates. Twenty-four hours later, cells were transfected with 100 nM (final concentration) of each siRNA. […] Colonies of at least 50 cells were counted using a light microscope (CKX41: Olympus, Center Valley, PA, USA) with a total magnification of 40x. […] Optical density (OD) was measured, and percentages of cell viability were calculated after blank OD subtraction. Untreated cells were assessed as 100% cell viability. […]

With “CASC10-siRNA (2): siRNA targeting CASC10 RNA, SEQ ID NO 3 and 4: 5′ GACUCUUGGAUCCAAGUUU(dT)(dT) 3′ / 5′ AAACUUGGAUCCAAGAGUC(dT)(dT) 3′ (chain 1 GACUCUUGGAUCCAAGUUUNN; chain 2 AAACUUGGAUCCAAGAGUCNN; 3' dTdT overhangs, chemistry not fully specified)” as the substance, how does the cell cycle progression [1] read?
The cell cycle progression was “cell cycle arrest in the G0/G1 to S phase”.

What about the “decrease of CASC10 relative expression” value [2] of the same substance?
The value was 75%.

And the cell viability [3]?
Its cell viability is “did not significantly reduce cell viability”.

And the “decrease of CASC10 expression” value [4]?
Its value is 57%.

And the “increase in caspase-3 activity” value [5]?
Its value is 5 fold.

What about the cell cycle progression [6] of the same substance?
The cell cycle progression was “cell cycle arrest in the G0/G1 to S phase”.

What about the reduction of invasiveness [7] of the same substance?
Its reduction of invasiveness is 62%.

And the “reduction of invasion ability” value [8]?
Its value is 58%.

And the “reduction in the number of colonies” value [9]?
The value was 54%.
